Assay results: PubChem BioAssay (NCI)
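Growth conditions: 96-well plates. Treatment: test compound, 48 hours, 5 concentrations. Analysis: linear interpolation between bracketing concentrations; unreached endpoints set to highest concentration. GI50: concentration for 50% inhibition of growth. TGI denotes the concentration required for complete inhibition of growth.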 Activity calls are given as the source filed them. No stated cut-off is given here; in the data, active means GI50 below about 0.43 µM; inactive means the rest.

What was measured:
Test in all cases: DTP human tumour cell line panel, 48 h
A498 renal = tested on: A498 renal
NCI-H226 lung = tested on: NCI-H226 lung
786-0 renal = tested on: 786-0 renal
UO-31 renal = tested on: UO-31 renal
SR leukemia = tested on: SR leukemia
KM12 colon = tested on: KM12 colon
U251 CNS = tested on: U251 CNS
T-47D breast = tested on: T-47D breast
SW-620 colon = tested on: SW-620 colon

Compound	GI50 (A498 renal)	TGI (A498 renal)	GI50 (NCI-H226 lung)	TGI (NCI-H226 lung)	GI50 (786-0 renal)	TGI (786-0 renal)	GI50 (UO-31 renal)	TGI (UO-31 renal)	GI50 (SR leukemia)	TGI (SR leukemia)	GI50 (KM12 colon)	TGI (KM12 colon)	GI50 (U251 CNS)	TGI (U251 CNS)	GI50 (T-47D breast)	TGI (T-47D breast)	GI50 (SW-620 colon)	TGI (SW-620 colon)	outcome (A498 renal)
O=C1Nc2ccccc2C1(c1ccc(O)cc1)c1ccc(O)cc1	17.8 µM	47.1 µM	12.8 µM	59.7 µM	26.7 µM	75.9 µM	23.7 µM	> 89.1 µM	32.9 µM	> 96.3 µM	12.1 µM	28.4 µM	24.2 µM	63.5 µM	0.0474 µM	0.245 µM	26.2 µM	83 µM	–
CC1(C)OC2=C(CC1Br)C(=O)C(=O)c1ccccc12 (stereo not given)	1.43 µM	3.07 µM	1.7 µM	3.12 µM	1.91 µM	3.43 µM	1.35 µM	2.76 µM	3.97 µM	7.44 µM	1.75 µM	3.19 µM	1.87 µM	3.87 µM	2.03 µM	4.72 µM	1.91 µM	3.49 µM	–
Cc1ccc(C(=O)N(CCCN)C(c2oc3cc(Cl)ccc3c(=O)c2Cc2ccccc2)C(C)C)cc1 (stereo not given)	< 0.01 µM	–	1.47 µM	3.23 µM	< 0.01 µM	2.11 µM	0.67 µM	2.46 µM	< 0.01 µM	1.86 µM	< 0.01 µM	1.47 µM	< 0.01 µM	1.37 µM	< 0.01 µM	2.02 µM	< 0.01 µM	1.45 µM	–
Cc1ccc2c(c1)Sc1c(ccc3ccccc13)N2	83.9 µM	> 100 µM	11.8 µM	> 100 µM	> 100 µM	> 100 µM	3.82 µM	> 100 µM	4.4 µM	> 100 µM	48.7 µM	> 100 µM	9.31 µM	> 100 µM	38.3 µM	> 100 µM	> 100 µM	> 100 µM	–
CS(=O)(=O)c1ccc(-n2nc(C(F)(F)F)cc2OC2CCCC2)cc1	25.2 µM	56.2 µM	34 µM	> 100 µM	34 µM	> 100 µM	> 100 µM	> 100 µM	19.8 µM	47.9 µM	38.5 µM	> 100 µM	22.1 µM	75 µM	33 µM	> 100 µM	71.2 µM	> 100 µM	–
Cc1cc(Cl)cc2c1NC(=O)C2(O)CC(=O)c1ccco1 (stereo not given)	–	> 100 µM	–	> 100 µM	–	> 100 µM	–	> 100 µM	–	64.7 µM	–	> 100 µM	–	> 100 µM	–	> 100 µM	–	> 100 µM	–
Nc1nc(N(Cc2ccccc2)c2ccccc2)c2cn[nH]c2n1	3.03 µM	9.23 µM	6.35 µM	> 100 µM	4.63 µM	> 100 µM	1.8 µM	> 100 µM	1.3 µM	5.64 µM	3.23 µM	> 100 µM	4.35 µM	> 100 µM	4.34 µM	> 100 µM	3.93 µM	> 100 µM	–
O=C(CCc1nnc2sc(-c3ccc(Cl)cc3Cl)nn12)c1nc2ccccc2[nH]1	0.845 µM	2.26 µM	0.663 µM	1.56 µM	1.48 µM	2.89 µM	0.838 µM	2.24 µM	0.301 µM	–	1.25 µM	2.86 µM	0.932 µM	2.26 µM	0.916 µM	2.92 µM	0.229 µM	0.744 µM	–
CCCC(=O)OCC1OC(n2cnc3c(=S)nc[nH]c32)C(OC(=O)CCC)C1OC(=O)CCC (stereo not given)	33.2 µM	> 100 µM	5.77 µM	> 100 µM	3.46 µM	> 100 µM	7.53 µM	> 100 µM	2.02 µM	40.2 µM	4.99 µM	> 100 µM	62 µM	> 100 µM	0.794 µM	> 100 µM	4.59 µM	> 100 µM	–
C#CCNC(=O)c1cccc2c1cc(C)n2-c1nc2c(c(NCc3ccccc3)n1)CCCC2	0.0218 µM	0.0591 µM	0.017 µM	0.0491 µM	0.0292 µM	0.0788 µM	0.0242 µM	0.0678 µM	0.0156 µM	0.165 µM	0.0231 µM	0.065 µM	0.0254 µM	0.0646 µM	0.0283 µM	0.117 µM	0.0289 µM	0.142 µM	–
COc1ccc(C(=O)C#Cc2cnc(OC)nc2OC)cc1	–	35.1 µM	16900 µM	–	22000 µM	–	19100 µM	–	12500 µM	43100 µM	56100 µM	11.6 µM	58900 µM	2.62 µM	–	61400 µM	25200 µM	–	inactive
CS(=O)(=O)CCNCc1ccc(-c2ccc3ncnc(Nc4ccc(OCc5ccccc5)cc4)c3c2)o1	2.98 µM	8.27 µM	13.2 µM	> 25 µM	4.35 µM	8.73 µM	2.95 µM	8.95 µM	5.06 µM	> 19.9 µM	8.85 µM	> 25 µM	6.2 µM	> 25 µM	4.01 µM	> 25 µM	6.94 µM	> 17.3 µM	–
